Two compounds from ChEMBL document CHEMBL4627384, “l-Thyroxin and the Nonclassical Thyroid Hormone TETRAC Are Potent Activators of PPARγ” (J Med Chem, 2020) can be followed below.

SMILES strings stand for the structures. The source made the active and inactive calls. No cut-off for these calls is given here.

The target in assay [1] is T1, Peroxisome proliferator-activated receptor gamma (Homo sapiens) (UniProt P37231).
T1 sequence (whole entry): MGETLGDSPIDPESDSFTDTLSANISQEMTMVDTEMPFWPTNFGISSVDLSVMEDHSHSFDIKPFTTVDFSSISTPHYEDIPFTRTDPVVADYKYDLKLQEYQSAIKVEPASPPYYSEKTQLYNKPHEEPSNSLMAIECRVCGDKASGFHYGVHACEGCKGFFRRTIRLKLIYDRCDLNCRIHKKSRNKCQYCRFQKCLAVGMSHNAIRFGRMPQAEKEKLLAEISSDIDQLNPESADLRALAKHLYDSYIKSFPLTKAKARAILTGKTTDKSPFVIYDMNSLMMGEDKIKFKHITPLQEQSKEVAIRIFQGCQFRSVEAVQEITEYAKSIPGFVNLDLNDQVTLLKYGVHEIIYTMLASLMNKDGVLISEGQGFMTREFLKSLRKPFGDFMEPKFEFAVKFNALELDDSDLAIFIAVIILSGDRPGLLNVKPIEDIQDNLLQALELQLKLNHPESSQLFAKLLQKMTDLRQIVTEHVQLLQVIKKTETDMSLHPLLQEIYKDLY
The assay is described as follows: Agonist activity at PPARgamma in human HepG2 cells with THRA knockdown assessed as induction of CD36 expression at 30 uM incubated for 8 hrs in by Western blot analysis. It is filed as cell-based. A general note: In western blotting, separated proteins are transferred to a membrane and probed.

Assay [2] concerns the target T1, Peroxisome proliferator-activated receptor gamma (Homo sapiens). The assay is described as follows: Agonist activity at PPARgamma in human HepG2 cells without THRB knockdown assessed as induction of CD36 expression at 30 uM incubated for 8 hrs in by Western blot analysis. The class given is cell-based.
The target of assay [3] is Luciferin 4-monooxygenase (Photinus pyralis) (UniProt P08659). As to the kind of experiment: Activation of firefly luciferase expressed in HEK293T cells at 15 uM incubated for 14 to 16 hrs by reporter gene assay. The class given is cell-based. As to conditions: HEK-293T.
Assay [4] deals with T1, Peroxisome proliferator-activated receptor gamma (Homo sapiens). As to the kind of experiment: Agonist activity at recombinant human pFA-CMV fused PPARgamma LBD expressed in HEK293T cells transfected with pFR-luciferase plasmid and pRL-SV40 plasmid at 0.1 uM incubated for 14 to 16 hrs in presence of PPARgamma antagonist GW9662 by dual glo luciferase reporter gene assay. It is filed as cell-based. As to conditions: HEK-293T.

Assay [5] concerns the target T2, Retinoic acid receptor RXR-alpha (Homo sapiens) (UniProt P19793).
T2 sequence (whole entry): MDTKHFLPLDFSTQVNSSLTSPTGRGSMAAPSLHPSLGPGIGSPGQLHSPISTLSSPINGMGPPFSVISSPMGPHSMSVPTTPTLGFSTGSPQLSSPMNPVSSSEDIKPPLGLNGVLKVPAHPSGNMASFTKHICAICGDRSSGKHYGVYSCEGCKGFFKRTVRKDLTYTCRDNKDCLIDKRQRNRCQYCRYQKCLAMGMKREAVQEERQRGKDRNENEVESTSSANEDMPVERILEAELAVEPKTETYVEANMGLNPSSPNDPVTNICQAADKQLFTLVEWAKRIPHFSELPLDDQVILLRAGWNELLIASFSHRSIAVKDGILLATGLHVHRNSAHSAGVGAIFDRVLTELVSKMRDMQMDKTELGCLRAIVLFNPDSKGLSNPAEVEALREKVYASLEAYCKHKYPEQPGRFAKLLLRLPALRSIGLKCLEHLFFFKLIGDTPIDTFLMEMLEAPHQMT
As to the kind of experiment: Agonist activity at GFP RXRalpha LBD (unknown origin) assessed as biotin-labeled SRC-1 recruitment incubated for 2 hrs by HT-FRET assay relative to SR11237.

For assay [6], the target named is T1, Peroxisome proliferator-activated receptor gamma (Homo sapiens). The assay is described as follows: Agonist activity at N-terminal GFP-fused PPARgamma LBD (unknown origin) assessed as biotin-labeled SRC-1 recruitment incubated for 2 hrs by HT-FRET assay relative to rosiglitazone.
For assay [7] the target is unchanged. As to the kind of experiment: Agonist activity at N-terminal GFP-fused PPARgamma LBD (unknown origin) assessed as biotin-labeled CBP recruitment incubated for 2 hrs by HT-FRET assay relative to rosiglitazone.
The target in assay [8] is T3, Peroxisome proliferator-activated receptor gamma (Mus musculus) (UniProt P37238).
T3 sequence (whole entry): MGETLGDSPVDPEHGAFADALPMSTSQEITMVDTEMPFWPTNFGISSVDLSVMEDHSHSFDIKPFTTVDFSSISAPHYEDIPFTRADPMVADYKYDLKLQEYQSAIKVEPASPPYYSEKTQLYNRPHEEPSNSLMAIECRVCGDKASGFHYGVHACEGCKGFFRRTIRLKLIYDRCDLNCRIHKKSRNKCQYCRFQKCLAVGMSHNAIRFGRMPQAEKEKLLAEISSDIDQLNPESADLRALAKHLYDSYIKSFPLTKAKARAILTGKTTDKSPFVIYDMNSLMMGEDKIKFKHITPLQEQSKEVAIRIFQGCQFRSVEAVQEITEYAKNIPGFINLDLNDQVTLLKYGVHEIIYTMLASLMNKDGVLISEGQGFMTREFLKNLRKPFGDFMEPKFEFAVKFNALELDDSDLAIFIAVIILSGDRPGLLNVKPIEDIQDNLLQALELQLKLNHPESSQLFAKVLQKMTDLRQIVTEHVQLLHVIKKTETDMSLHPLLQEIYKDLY
As to the kind of experiment: Agonist activity at PPARgamma in mouse 3T3L1 adipocytes assessed as induction of GLUT4 mRNA expression at 1 uM by qRT-PCR analysis. As to conditions: 3T3-L1. It is filed as cell-based.

Assay [9] has as its target T4, Retinoic acid receptor RXR-alpha (Homo sapiens, UniProt P19793).
T4 sequence (P19793 whole entry): T2 sequence (whole entry)
As to the kind of experiment: Agonist activity at GFP RXRalpha LBD (unknown origin) assessed as biotin-labeled SRC-1 recruitment incubated for 2 hrs by HT-FRET assay.

The target in assay [10] is T1, Peroxisome proliferator-activated receptor gamma (Homo sapiens). The assay is described as follows: Agonist activity at PPARgamma in human HepG2 cells assessed as induction of CD36 mRNA expression at 1 uM incubated for 8 hrs in presence of PPARgamma antagonist GW9662 by qPCR analysis. It is filed as cell-based. For orientation: In qPCR the cycle at which signal appears reflects the starting amount.

Assay [11] deals with Luciferin 4-monooxygenase (Photinus pyralis) (UniProt P08659). As to the kind of experiment: Activation of firefly luciferase expressed in HEK293T cells at 0.1 uM incubated for 14 to 16 hrs by reporter gene assay. The class given is cell-based. As to conditions: HEK-293T.

Chain of Luciferin 4-monooxygenase (Photinus pyralis) (P08659 whole entry, the tested form may be a part): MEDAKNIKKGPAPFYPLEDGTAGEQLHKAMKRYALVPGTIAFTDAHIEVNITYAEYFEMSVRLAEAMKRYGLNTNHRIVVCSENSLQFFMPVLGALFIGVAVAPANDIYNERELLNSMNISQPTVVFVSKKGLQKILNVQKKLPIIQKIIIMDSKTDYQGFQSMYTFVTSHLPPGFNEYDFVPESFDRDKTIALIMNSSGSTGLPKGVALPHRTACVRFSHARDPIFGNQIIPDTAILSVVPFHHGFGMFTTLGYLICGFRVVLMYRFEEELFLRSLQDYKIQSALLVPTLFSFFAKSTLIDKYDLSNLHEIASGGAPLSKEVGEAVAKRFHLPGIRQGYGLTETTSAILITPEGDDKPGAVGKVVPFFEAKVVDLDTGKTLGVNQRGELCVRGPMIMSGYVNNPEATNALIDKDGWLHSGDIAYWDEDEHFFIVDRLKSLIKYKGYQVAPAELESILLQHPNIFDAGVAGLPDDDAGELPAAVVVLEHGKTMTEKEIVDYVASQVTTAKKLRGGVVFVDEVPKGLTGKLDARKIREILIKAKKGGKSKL

In the case of `N[C@@H](Cc1cc(I)c(Oc2cc(I)c(O)c(I)c2)c(I)c1)C(=O)O` [LEVOTHYROXINE], the outcome in [1] and in assay [2] was Active. In addition, the result in assay [3] was inactive.

For `O=C(O)Cc1cc(I)c(Oc2cc(I)c(O)c(I)c2)c(I)c1` [TETRAC], the result in assay [4], in [10] and in [11] was inactive. In addition, the Activity in [5] came to 8.2%. Moreover, the outcome in [6], in assay [7] and in [8] was Active. The EC50 in [9] is 4.6 µM.

The term EC50 denotes the midpoint of the concentration-response curve.
